Measurements published in patent publication US4528190A, “GRF Analogs IV” (The Salk Institute For Biological Studies, priority 1984, dated 1985).
Square brackets hold non-standard residues; d marks the D form. Ends that are not written are not given here. Peptide text beside a SMILES is read from it. Nle = CCCC[C@H](N)C(=O)O

Tested on: cells of rat pituitary glands
Experiment: in vitro GH release from cultured rat pituitary cells, compared side by side with synthetic hpGRF(1-40)-OH as standard
Assay type: cell-based
Conditions: GH release relative to standard hGRF(1-40)-OH = 100%; equimolar concentrations; incubation 3 to 4 hours; immunoreactive GH by radioimmunoassay
Protocol: To determine the relative effectiveness of certain representative synthetic peptides to promote the release of growth hormone, in vitro assays are carried out using synthetic hpGRF(1-40)-OH as a standard in side-by-side comparison with equimolar concentrations of the representative analogs which have been synthesized. Cultures are used which include cells of rat pituitary glands removed some three to five days previously. Such cultures are considered optimal for the secretion of growth hormone and are used for the comparative testing, in the general manner described in Vale et al. Endocrinology, 91, 562-572 (1972) and as more particularly described in Vale et al. Endocrinology, 112, 1553-1555 (1983). Incubation with the substance to be tested is carried out for 3 to 4 hours, and aliquots of the culture medium are removed and processed to measure their contents in immunoreactive GH(ir GH) by a well-characterized radioimmunoassay.

Row | Compound | Comparison %
1 | CCCC[C@H](NC(=O)[C@@H](NC(=O)[C@H](CCC(=O)O)NC(=O)[C@H](Cc1c[nH]cn1)NC(=O)[C@H](CC(C)C)NC(=O)[C@H](CC(C)C)NC(=O)[C@H](CCCCN)NC(=O)[C@H](CCCNC(=N)N)NC(=O)[C@H](C)NC(=O)[C@H](Cc1ccc(O)cc1)NC(=O)[C@H](CC(C)C)NC(=O)[C@H](CCC(N)=O)NC(=O)CNC(=O)[C@@H](CC(C)C)NC(=O)[C@@H](NC(=O)[C@H](CCCNC(=N)N)NC(=O)[C@H](CCCNC(=N)N)NC(=O)[C@H](Cc1ccc(O)cc1)NC(=O)[C@H](CO)NC(=O)[C@H](CO)NC(=O)[C@@H](NC(=O)[C@H](Cc1ccccc1)NC(=O)[C@@H](NC(=O)[C@H](C)NC(=O)[C@H](CC(=O)O)NC(=O)[C@H](C)NC(=O)[C@@H](N)Cc1c[nH]cn1)[C@@H](C)CC)[C@@H](C)O)[C@@H](C)CC)[C@@H](C)CC)C(=O)N[C@@H](CC(N)=O)C(=O)N[C@@H](CCCNC(=N)N)C(N)=O [[D-Leu^14, Nle^27]-rGRF(1-29)-NH2] (H-HADAIFTSSYRRI[dL]GQLYARKLLHEI[Nle]NR-NH2) | 120%
2 | CCCC[C@H](NC(=O)[C@@H](NC(=O)[C@H](CCC(=O)O)NC(=O)[C@H](Cc1c[nH]cn1)NC(=O)[C@H](CC(C)C)NC(=O)[C@H](CC(C)C)NC(=O)[C@H](CCCCN)NC(=O)[C@H](CCCNC(=N)N)NC(=O)[C@H](C)NC(=O)[C@H](Cc1ccc(O)cc1)NC(=O)[C@H](CC(C)C)NC(=O)[C@H](CCC(N)=O)NC(=O)CNC(=O)[C@H](CC(C)C)NC(=O)[C@@H](NC(=O)[C@H](CCCNC(=N)N)NC(=O)[C@H](CCCNC(=N)N)NC(=O)[C@H](Cc1ccc(O)cc1)NC(=O)[C@H](CO)NC(=O)[C@H](CO)NC(=O)[C@@H](NC(=O)[C@H](Cc1ccccc1)NC(=O)[C@@H](NC(=O)[C@H](C)NC(=O)[C@H](CC(=O)O)NC(=O)[C@H](C)NC(=O)[C@@H](N)Cc1c[nH]cn1)[C@@H](C)CC)[C@@H](C)O)[C@@H](C)CC)[C@@H](C)CC)C(=O)N[C@@H](CC(N)=O)C(=O)N[C@H](CCCNC(=N)N)C(N)=O [[Nle^27, D-Arg^29]-rGRF(1-29)-NH2] (H-HADAIFTSSYRRILGQLYARKLLHEI[Nle]N[dR]-NH2) | 386%
3 | hGRF(1-40)-OH (YADAIFTNSYRKVLGQLSARKLLQDIMSRQQGESNQERGA-OH; UniProt P01286 32-71, looked up, fragment) [synthetic human pancreatic (tumor) GH releasing factor, residues 1-40, free acid; standard for the tests, reference compound] | 100%
